Drawing on patent US10385022B2, “3-amino-pyridines as GPBAR1 agonists” (HOFFMANN-LA ROCHE INC., priority 2011, dated 2019), this text covers EC50 for 23 molecules.

One may read the EC50 as the concentration that produces a half-maximal response. The low end stands for an effect from little substance, the high end for a need for much substance.

The target of the test is human GPBAR1 receptor (Homo sapiens (Human), UniProt Q8TDU6). In words: functional cAMP assay in CHO-dhfr(minus) cells expressing human GPBAR1 receptors. The test is classed as cell-based. To be noted: CHO-dhfr(minus) cells expressing human GPBAR1, 30 min at 30° C. In short, it runs like this: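 Functional cAMP responses in a human GPBAR1-transfected CHO-dhfr- clone, picked using lithocholic acid as agonist, gave the EC50 values. Parallel testing in untransfected CHO cells served as a specificity control.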
Sequence of human GPBAR1 receptor (Q8TDU6 whole entry): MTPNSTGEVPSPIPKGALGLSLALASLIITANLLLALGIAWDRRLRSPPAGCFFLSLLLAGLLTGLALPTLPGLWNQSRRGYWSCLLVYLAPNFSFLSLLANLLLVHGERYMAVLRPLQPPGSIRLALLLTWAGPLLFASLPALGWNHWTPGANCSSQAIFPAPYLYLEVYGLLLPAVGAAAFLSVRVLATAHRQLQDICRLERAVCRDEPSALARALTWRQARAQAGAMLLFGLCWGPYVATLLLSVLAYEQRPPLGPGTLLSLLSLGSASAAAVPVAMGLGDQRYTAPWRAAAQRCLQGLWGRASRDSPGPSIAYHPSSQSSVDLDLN
`COc1cc(F)ccc1-c1cc(C)ncc1N(C)C(=O)c1cc(C(F)(F)F)cc(S(=O)(=O)C2COC2)c1` [Example 314, N-[4-(4-Fluoro-2-methoxy-phenyl)-6-methyl-pyridin-3-yl]-N-methyl-3-(oxctane-3-sulfonyl)-5-trifluoromethyl-benzamide] yielded a concentration giving a half-maximal response (EC50) of 115 nM.

With `CN(C(=O)c1cc(C(F)(F)F)cc(C(F)(F)F)c1)c1cnccc1-c1cc(F)ccc1F` [Example 61, N-[4-(2,5-Difluoro-phenyl)-pyridin-3-yl]-N-methyl-3,5-bis-trifluoromethyl-benzamide], the EC50 turned out to be 72 nM.

`COC(=O)CN(C(=O)c1cc(C(F)(F)F)nc(C(F)(F)F)c1)c1cnccc1-c1cccnc1OC` [Example 182, Methyl 2-(N-(2-methoxy-3,4′-bipyridin-3′-yl)-2,6-bis(trifluoromethyl)isonicotinamido)acetate] had an EC50 of 27 nM.

`COc1cc(F)ccc1-c1ccncc1N(C)C(=O)c1cc(C(F)(F)F)cc(S(=O)(=O)C2CNC2)c1` [Example 280, 3-(Azctidine-3-sulfonyl)-N-[4-(4-fluoro-2-methoxy-phenyl)-pyridin-3-yl]-N-methyl-5-trifluoromethyl-benzamide] yielded an EC50 of 268 nM.

For `CN(C(=O)c1cc(C(F)(F)F)cc(C(F)(F)F)c1)c1cnccc1-c1ccccc1F` [Example 25, N-[4-(2-Fluoro-phenyl)-pyridin-3-yl]-N-methyl-3,5-bis-trifluoromethyl-benzamide], the EC50 stood at 14 nM.

Molecule `Cc1ccccc1-c1ccncc1N(C)C(=O)c1cc(C(F)(F)F)nc(C(F)(F)F)c1` [Example 131, N-Methyl-N-(4-o-tolyl-pyridin-3-yl)-2,6-bis-trifluoromethyl-isonicotinamide] displayed an EC50 of 19 nM.

Consider `CN(C(=O)c1cc(C(F)(F)F)cc(C(F)(F)F)c1)c1cnccc1-c1ccnc(Cl)c1F` [Example 56, N-(2′-Chloro-3′-fluoro-[4,4′]bipyridinyl-3-yl)-N-methyl-3,5-bis-trifluoromethyl-benzamide], for which the EC50 stood at 430 nM.

For `COc1cc(F)ccc1-c1ccncc1N(CC(F)(F)F)C(=O)c1cc(F)cc(C(F)(F)F)c1` [Example 134, 3-Fluoro-N-[4-(4-fluoro-2-methoxy-phenyl)-pyridin-3-yl]-N-(2,2,2-trifluoro-ethyl)-5-trifluoromethyl-benzamide], the EC50 was determined as 912 nM. This EC50 is about 2.1-fold higher than that of the molecule before.

Take `CS(=O)(=O)c1cc(C(=O)N(CC(F)(F)F)c2cnccc2-c2ccccc2Cl)cc(C(F)(F)F)c1` [Example 287, N-[4-(2-Chloro-phenyl)-pyridin-3-yl]-3-methanesulfonyl-N-(2,2,2-trifluoro-ethyl)-5-trifluoromethyl-benzamide]: the EC50 came to 539 nM.

In the case of `CS(=O)(=O)CCN(C(=O)c1cc(C(F)(F)F)nc(C(F)(F)F)c1)c1cnccc1-c1ccccc1F` [Example 159, N-[4-(2-Fluoro-phenyl)-pyridin-3-yl]-N-(2-methanesulfonyl-ethyl)-2,6-bis-trifluoromethyl-isonicotinamide], the midpoint of the response, the EC50, lay at 326 nM.

Molecule `COc1cc(F)ccc1-c1ccncc1N(C)C(=O)c1cc(O)cc(C(F)(F)F)c1` [Example 226, N-[4-(4-Fluoro-2-methoxy-phenyl)-pyridin-3-yl]-3-hydroxy-N-methyl-5-trifluoromethyl-benzamide] gave an EC50 of 958 nM.

In turn, `COC(=O)CN(C(=O)c1cc(C(F)(F)F)cc(C(F)(F)F)c1)c1cnccc1-c1cc(F)c(F)cc1OC` [Example 188, {(3,5-Bis-trifluoromethyl-benzoyl)-[4-(4,5-difluoro-2-methoxy-phenyl)-pyridin-3-yl]-amino}-acetic acid methyl ester] came in with an EC50 of 70 nM.

For `COc1cc(F)ccc1-c1ccncc1N(C)C(=O)c1cc(OCCO)cc(C(F)(F)F)c1` [Example 240, N-[4-(4-Fluoro-2-methoxy-phenyl)-pyridin-3-yl]-3-(2-hydroxy-ethoxy)-N-methyl-5-trifluoromethyl-benzamide], it took 1150 nM to reach a half-maximal effect (EC50).

`COc1cc(F)ccc1-c1ccncc1N(C)C(=O)c1cc(C(F)(F)F)cc(S(=O)(=O)CCNS(N)(=O)=O)c1` [Example 269, N-[4-(4-fluoro-2-methoxyphenyl)pyridin-3-yl]-N-methyl-3-{[2-(sulfamoylamino)ethyl]-sulfonyl}-5-(trifluoromethyl)benzamide] came in with an EC50 of 94 nM.

In turn, `Cc1cc(C(=O)N(C)c2cnccc2-c2ccccc2C)cc(C(F)(F)F)c1` [Example 108, 3,N-Dimethyl-N-(4-o-tolyl-pyridin-3-yl)-5-trifluoromethyl-benzamide] showed an EC50 of 70 nM. This EC50 and that of the molecule before are within 1.5-fold of each other.

In turn, `CS(=O)(=O)c1cc(C(=O)N(CC(F)(F)F)c2cnccc2-c2ccccc2F)cc(C(F)(F)F)c1` [Example 214, N-[4-(2-Fluoro-phenyl)-pyridin-3-yl]-3-methanesulfonyl-N-(2,2,2-trifluoro-ethyl)-5-trifluoromethyl-benzamide] gave a concentration for a half-maximal effect (EC50) of 265 nM.

As to `COc1cc(F)ccc1-c1ccncc1N(C)C(=O)c1cc(C(F)(F)F)cc(S(=O)(=O)N2CCC2)c1` [Example 249, 3-(Azetidine-1-sulfonyl)-N-[4-(4-fluoro-2-methoxy-phenyl)-pyridin-3-yl]-N-methyl-5-trifluoromethyl-benzamide], the EC50 was 19 nM.

`CCc1ccccc1-c1ccncc1N(C)C(=O)c1cc(C(F)(F)F)cc(C(F)(F)F)c1` [Example 168, N-[4-(2-Ethyl-phenyl)-pyridin-3-yl]-N-methyl-3,5-bis-trifluoromethyl-benzamide] displayed an EC50 of 41 nM.

Consider `COc1cc(F)ccc1-c1ccncc1N(CC1CCCO1)C(=O)c1cc(C(F)(F)F)cc(S(C)(=O)=O)c1` (single isomer, unassigned; (-)) [Example 233, (−)-N-[4-(4-Fluoro-2-methoxy-phenyl)-pyridin-3-yl]-3-methanesulfonyl-N-[1-(tetrahydro-furan-2-yl)methyl]-5-trifluoromethyl-benzamide], for which the response was half-maximal at 54 nM (EC50).

In turn, `COCCS(=O)(=O)c1cc(C(=O)N(C)c2cnccc2-c2ccc(F)cc2OC)cc(C(F)(F)F)c1` [Example 217, N-[4-(4-Fluoro-2-methoxy-phenyl)-pyridin-3-yl]-3-(2-methoxy-ethanesulfonyl)-N-methyl-5-trifluoromethyl-benzamide] displayed an EC50 of 31 nM.

For `COC(=O)CN(C(=O)c1cc(C(F)(F)F)nc(C(F)(F)F)c1)c1cnccc1-c1c(F)cccc1OC` [Example 195, Methyl 2-(N-(4-(2-fluoro-6-methoxyphenyl)pyridin-3-yl)-2,6-bis(trifluoromethyl)isonicotinamido)acetate], a half-maximal effect (EC50) was put at 13 nM. This EC50 lies about 2.4-fold lower than the previous one.

`COC(=O)CN(C(=O)c1cc(C(F)(F)F)cc(S(C)(=O)=O)c1)c1cnccc1-c1cc(F)ccc1OC` [Example 297, [[4-(5-Fluoro-2-methoxy-phenyl)-pyridin-3-yl]-(3-methanesulfonyl-5-trifluoromethyl-benzoyl)-amino]-acetic acid methyl ester] had an EC50 of 521 nM.

In turn, `COC(=O)CN(C(=O)c1cc(C(F)(F)F)cc(C(F)(F)F)c1)c1cnccc1-c1ccccc1Cl` [Example 88, {(3,5-Bis-trifluoromethyl-benzoyl)-[4-(2-chloro-phenyl)-pyridin-3-yl]-amino}-acetic acid methyl ester] registered an EC50 of 66 nM.
